Test results reported in patent US5624941A, “Pyrazole derivatives, method of preparing them and pharmaceutical compositions in which they are present” (Sanofi, priority 1992, dated 1997).

Assays:
[1] = molecular target: T1, cannabinoid receptors (Mus musculus, UniProt P47746); test: antagonism of hypothermia induced by WIN 55 212-2 in mice; type: in vivo
T1 construct: from tissue; host or cells: whole living mouse (in vivo hypothermia test)

[2] = toxicity
[3] = test system: rats; test: test of the central memory in rats (Perio et al.); type: in vivo; details: subcutaneous administration
[4] = penetration of the blood-brain barrier / central nervous system; type: in vivo

T1 sequence (P47746 whole entry): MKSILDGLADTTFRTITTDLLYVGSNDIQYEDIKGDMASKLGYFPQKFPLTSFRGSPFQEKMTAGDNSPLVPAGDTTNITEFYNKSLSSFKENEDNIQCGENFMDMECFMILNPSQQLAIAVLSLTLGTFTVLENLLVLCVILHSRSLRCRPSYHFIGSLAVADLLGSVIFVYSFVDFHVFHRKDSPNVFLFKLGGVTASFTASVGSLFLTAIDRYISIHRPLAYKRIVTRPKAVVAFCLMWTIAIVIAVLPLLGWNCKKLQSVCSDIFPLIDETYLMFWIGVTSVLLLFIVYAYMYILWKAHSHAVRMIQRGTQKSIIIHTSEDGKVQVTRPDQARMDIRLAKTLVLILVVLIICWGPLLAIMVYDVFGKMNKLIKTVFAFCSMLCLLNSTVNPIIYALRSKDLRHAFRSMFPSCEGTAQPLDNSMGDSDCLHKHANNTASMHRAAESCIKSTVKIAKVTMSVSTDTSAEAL

Cc1c(C(=O)NN2CCCCC2)nn(-c2ccc(Cl)cc2Cl)c1-c1ccc(Cl)cc1 [N-piperidino-5-(4-chlorophenyl)-1-(2,4-dichlorophenyl)-4-methyl-pyrazole-3-carboxamide]
duration of action in the hypothermia test ([1]; mice, after oral administration of 3 mg/kg): 8 to 10 h | ED50, antagonism of WIN 55 212-2 induced hypothermia ([1]; mice, i.p.): 0.3 mg/kg | ED50, antagonism of WIN 55 212-2 induced hypothermia ([1]; mice, per os): 0.4 mg/kg | activity upon oral administration ([1]; oral): active upon oral administration | toxicity [2]: compatible with its use as a psychotropic drug | memory capacities of rats in the test of the central memory [3]: improves the memory capacities of rats | penetration in the central nervous system ([4]; confirmed by antagonism of agonist-induced hypothermia): good penetration | penetration of the blood-brain barrier ([4]; in vivo): penetrates the blood-brain barrier
